# According to patent US8933011B2, “Treatment of preterm labor with toll-like receptor 9 antagonists” (The Provost, Fellows and Scholars of the College of the …, priority 2008, dated 2015):
# “Also recorded” adds a separate entry of the source.
# Target: T1, Toll-like Receptor 9 (Homo sapiens, UniProt Q9NR96)
# T1 construct: endogenous in cells; host or cells: Namalwa cells
# T1 sequence (Q9NR96 26-1032): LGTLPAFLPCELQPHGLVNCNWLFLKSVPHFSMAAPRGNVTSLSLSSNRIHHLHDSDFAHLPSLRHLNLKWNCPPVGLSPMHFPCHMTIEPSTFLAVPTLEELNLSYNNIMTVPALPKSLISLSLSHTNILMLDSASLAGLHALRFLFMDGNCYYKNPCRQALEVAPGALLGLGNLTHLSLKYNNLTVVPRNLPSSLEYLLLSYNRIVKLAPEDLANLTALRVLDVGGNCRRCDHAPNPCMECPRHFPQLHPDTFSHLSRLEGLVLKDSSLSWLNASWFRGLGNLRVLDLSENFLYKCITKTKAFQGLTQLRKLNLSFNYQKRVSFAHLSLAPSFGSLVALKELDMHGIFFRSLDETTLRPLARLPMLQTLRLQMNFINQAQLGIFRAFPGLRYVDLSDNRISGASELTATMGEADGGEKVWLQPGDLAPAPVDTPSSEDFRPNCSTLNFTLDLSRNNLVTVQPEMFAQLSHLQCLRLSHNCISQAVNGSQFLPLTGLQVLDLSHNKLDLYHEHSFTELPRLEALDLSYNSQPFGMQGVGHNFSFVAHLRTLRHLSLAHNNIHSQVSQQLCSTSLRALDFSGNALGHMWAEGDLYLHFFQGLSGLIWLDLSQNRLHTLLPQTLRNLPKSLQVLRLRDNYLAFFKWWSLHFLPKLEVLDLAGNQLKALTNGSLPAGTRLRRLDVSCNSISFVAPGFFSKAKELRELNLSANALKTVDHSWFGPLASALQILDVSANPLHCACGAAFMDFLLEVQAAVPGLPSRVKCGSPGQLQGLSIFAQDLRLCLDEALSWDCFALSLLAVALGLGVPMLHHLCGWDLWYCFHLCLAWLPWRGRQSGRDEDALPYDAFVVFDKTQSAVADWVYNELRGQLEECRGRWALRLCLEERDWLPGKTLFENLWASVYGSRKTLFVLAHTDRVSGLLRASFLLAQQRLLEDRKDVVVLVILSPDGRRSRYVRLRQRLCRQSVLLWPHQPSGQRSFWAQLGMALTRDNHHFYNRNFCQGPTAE
# Assay: Inhibition of fetal DNA induced I-kappa-B degradation in Namalwa cells by TLR9 inhibitors
# Type: cell-based
# Conditions: Namalwa cells pre-treated at 75 μM, then fetal DNA 3.0 μg/ml
# Description: Inhibition of Toll-like Receptor 9 was carried out using the Toll-like Receptor 9 antagonist cholorquine and a synthetic inhibitory oligodinucleotide (TTAGGG) which was obtained from InvivoGen. […] The recommended concentration from package inserts was to use a 10-100 microM concentration. […] The same fetal DNA (3.0 μg/ml) was then used to stimulate cells over time in minutes as described above.
# Namalwa cells (2.0×10^7 cells/ml) were also incubated with synthetic inhibitory TLR-9 oligonucleotide (ODN+) at an 8:1 ratio of oligodinucleotide (ODN) to ligand. The package insert recommended a 1-10:1 ratio of inhibitory oligodinucleotide (ODN) to stimulatory oligodinucleotide (ODN). […] This was followed by stimulation with the same purchased fetal DNA at 3.0 μg/ml using the method described hereinbefore.
# In FIGS. 5A and 6A Namalwa cells (2.0×10^7 cells/ml) were incubated with the inhibitory TLR-9 oligonucleotide (ODN+) in an 8:1 ratio of ODN to ligand. This was followed by stimulation with fetal DNA at a concentration of 3.0 μg/ml.
# In FIGS. 5B and 6B, the TLR9 antagonist cholorquine was used to pre-treat Namalwa cells at 2.0×10^7 cells/ml at a concentration of 75 μM. Fetal DNA (3.0 microg/ml) was then used to stimulate cells over time in minutes.
structure (smiles),measurement,setting,value
"CCN(CC)CCCC(C)Nc1ccnc2cc(Cl)ccc12 (centres unmarked) [chloroquine, N′-(7-chloroquinolin-4-yl)-N,N-diethyl-pentane-1,4-diamine]",inhibition of fetal DNA induced I-kappa-B degradation,,can also inhibit this response; also recorded: Induction of I-kappa-B degradation was inhibited; also recorded: blocked the effect of fetal DNA on I-kappaB degradation
same,inhibition of fetal DNA induced I-kappa-B degradation,listed as Chloroquine,blocked I-kappa-B degradation; also recorded: blocked 1-kappa-B degradation
